Assay [1] deals with T1, rat adrenergic α1B receptor (Rattus norvegicus, UniProt P15823).
T1 construct: rat adrenergic α1B receptor obtained from Wistar Rat liver; from tissue; host or cells: Wistar rat liver
T1 sequence (P15823 1-515): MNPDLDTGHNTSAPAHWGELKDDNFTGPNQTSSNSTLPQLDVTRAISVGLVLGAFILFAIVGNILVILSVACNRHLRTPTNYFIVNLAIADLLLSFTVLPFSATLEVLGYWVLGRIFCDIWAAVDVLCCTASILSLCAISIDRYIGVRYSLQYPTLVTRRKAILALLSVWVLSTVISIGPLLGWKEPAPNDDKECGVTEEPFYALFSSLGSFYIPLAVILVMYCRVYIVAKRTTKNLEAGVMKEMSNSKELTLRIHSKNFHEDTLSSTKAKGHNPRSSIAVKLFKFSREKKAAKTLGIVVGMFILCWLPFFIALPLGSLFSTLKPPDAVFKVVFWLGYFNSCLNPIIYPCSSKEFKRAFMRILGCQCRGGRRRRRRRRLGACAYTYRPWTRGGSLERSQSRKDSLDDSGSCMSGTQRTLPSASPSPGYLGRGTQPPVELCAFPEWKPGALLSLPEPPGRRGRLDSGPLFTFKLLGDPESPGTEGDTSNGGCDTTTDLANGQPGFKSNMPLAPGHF
Description: Radioligand binding, adrenergic α1B ([3H]Prazosin). The settings on record: 0.1 μM compound; read-out: Percentage inhibition of ligand binding, Adrenergic α1B. Put shortly:
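Specific binding, taken as total minus that remaining with 10 μM phentolamine, is measured after filtration and counting. Rat liver receptor preparation and 0.25 nM [3H]prazosin are incubated with compound in 50 mM Tris-HCl (pH 7.4, 0.5 mM EDTA) at 25° C for 60 min. Activity is reported as percent inhibition.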

Assay [2] deals with T2, human recombinant adrenergic α2B receptor (Homo sapiens, UniProt P18089).
T2 construct: expressed in transfected cells; host or cells: CHO-K1
T2 sequence (P18089 1-450): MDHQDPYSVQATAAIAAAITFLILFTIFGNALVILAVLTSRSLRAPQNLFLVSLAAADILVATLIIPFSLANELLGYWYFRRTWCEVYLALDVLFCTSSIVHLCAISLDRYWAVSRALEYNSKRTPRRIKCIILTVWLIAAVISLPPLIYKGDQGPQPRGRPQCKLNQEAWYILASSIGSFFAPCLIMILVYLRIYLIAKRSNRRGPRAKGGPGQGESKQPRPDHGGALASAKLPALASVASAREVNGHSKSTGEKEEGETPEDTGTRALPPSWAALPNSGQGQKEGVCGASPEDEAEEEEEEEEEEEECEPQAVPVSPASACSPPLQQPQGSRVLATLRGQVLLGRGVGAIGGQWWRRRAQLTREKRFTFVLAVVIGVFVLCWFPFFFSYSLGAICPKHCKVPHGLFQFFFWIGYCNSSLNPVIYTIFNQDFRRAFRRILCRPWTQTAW
Description: Radioligand binding, adrenergic α2B ([3H]Rauwolscine). The note with it: for inhibition at 0.1 µM: 0.1 μM compound, read-out: Percentage inhibition of ligand binding, Adrenergic α2B. The gist of the method:
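Receptor expressed in CHO-K1 cells, assayed in 50 mM Tris-HCl pH 7.4 with 12.5 mM MgCl2, 1 mM EDTA and 0.2% BSA. Compounds were incubated with 2.5 nM [3H]Rauwolscine for 60 min at 25° C; 10 μM Prazosin defined non-specific binding. Filter counting gave percent inhibition of specific binding.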

Assay [3] concerns the target T3, human recombinant adrenergic α1D receptor (Homo sapiens, UniProt P25100).
T3 construct: expressed in transfected cells; host or cells: HEK-293
T3 sequence (P25100 1-572): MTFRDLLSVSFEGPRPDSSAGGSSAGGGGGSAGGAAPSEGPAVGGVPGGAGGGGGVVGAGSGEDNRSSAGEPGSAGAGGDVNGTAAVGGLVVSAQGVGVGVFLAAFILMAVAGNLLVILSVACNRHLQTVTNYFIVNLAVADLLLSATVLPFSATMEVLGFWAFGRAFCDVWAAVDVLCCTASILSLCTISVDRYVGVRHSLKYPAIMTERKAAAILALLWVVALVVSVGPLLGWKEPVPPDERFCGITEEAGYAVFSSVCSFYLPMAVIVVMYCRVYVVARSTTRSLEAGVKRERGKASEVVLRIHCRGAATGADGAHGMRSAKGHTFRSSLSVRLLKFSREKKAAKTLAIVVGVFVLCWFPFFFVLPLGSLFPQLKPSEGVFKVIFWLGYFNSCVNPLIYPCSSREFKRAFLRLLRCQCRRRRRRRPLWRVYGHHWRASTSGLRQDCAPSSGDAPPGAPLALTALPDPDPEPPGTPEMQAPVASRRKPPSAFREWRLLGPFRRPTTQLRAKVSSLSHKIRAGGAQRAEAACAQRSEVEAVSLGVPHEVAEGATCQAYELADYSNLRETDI
Description: Radioligand binding, adrenergic α1D ([3H]Prazosin). The settings on record: 0.1 μM compound; read-out: Percentage inhibition of ligand binding, Adrenergic α1D. On the procedure: Compounds were incubated with 0.6 nM [3H]Prazosin for 60 min at 25° C. Non-specific binding was estimated in the presence of 10 μM phentolamine. Receptor proteins were filtered and washed, the filters were then counted to determine [3H]Prazosin specifically bound. […] Biochemical assay results are presented as the percent inhibition of specific binding in Table B1.

For assay [4], the target named is T4, human recombinant adrenergic α2A receptor (Homo sapiens, UniProt P08913).
T4 construct: expressed in transfected cells; host or cells: insect Sf9 cells
T4 sequence (P08913 1-465): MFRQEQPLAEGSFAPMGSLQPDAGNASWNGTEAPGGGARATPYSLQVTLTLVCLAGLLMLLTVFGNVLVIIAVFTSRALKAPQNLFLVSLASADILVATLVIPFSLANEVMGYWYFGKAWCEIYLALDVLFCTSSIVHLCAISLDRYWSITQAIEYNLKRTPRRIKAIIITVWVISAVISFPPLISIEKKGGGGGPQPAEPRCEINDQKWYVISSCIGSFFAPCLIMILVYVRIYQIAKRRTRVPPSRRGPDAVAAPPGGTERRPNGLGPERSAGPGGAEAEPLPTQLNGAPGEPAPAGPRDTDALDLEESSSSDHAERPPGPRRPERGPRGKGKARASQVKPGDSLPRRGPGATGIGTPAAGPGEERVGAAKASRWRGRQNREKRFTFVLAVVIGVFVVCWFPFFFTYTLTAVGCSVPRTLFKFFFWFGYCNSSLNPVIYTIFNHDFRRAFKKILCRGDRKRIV
Description: Radioligand binding, adrenergic α2A ([3H]MK-912). Put shortly: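 Displacement of 1 nM [3H]MK-912 from receptor produced in insect Sf9 cells was measured after 60 min at 25 °C. Readout: percent inhibition of specific binding.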

Setting [5] is: 0.1 μM compound, read-out: Percentage inhibition of ligand binding, Adrenergic α2A.

In general, inhibition refers to the drop in the measured response relative to a control, in per cent. Consider `Cc1ccc(CCn2c3c(c4ccc(Cl)cc42)CN(C)CC3)cn1` [compound 315], for which the inhibition at 0.1 µM in assay [1] was 4%; in assay [2], 48%; in assay [3], 3%; in assay [4] (setting [5]), 59%.

As to `Cc1ccc2c(c1)c1c(n2/C=C/c2cccc3cnccc23)CCN(C)C1` [compound 316, 5-(2-isoquinolin-5-yl-vinyl)-2,8-dimethyl-2,3,4,5-tetrahydro-1H-pyrido[4,3-b]indole], the inhibition at 0.1 µM in assay [1] was found to be 93%; in assay [2], 45%; in assay [3], 81%; in assay [4] (setting [5]), 90%.

Turning to `Cc1ccc2c(c1)c1c(n2CCc2cccc3c2CCNC3)CCN(C)C1` [compound 317, 2,8-dimethyl-5-[2-(1,2,3,4-tetrahydro-isoquinolin-5-yl)-ethyl]-2,3,4,5-tetrahydro-1H-pyrido[4,3-b]indole], the inhibition at 0.1 µM in assay [1] amounted to 89%; in assay [2], 7%; in assay [3], 71%; in assay [4] (setting [5]), 61%.

With `Cc1ccc2c(c1)c1c(n2CCc2cscc2C)CCN(C)C1` [compound 318, 2,8-dimethyl-5-[2-(4-methyl-thiophen-3-yl)-ethyl]-2,3,4,5-tetrahydro-1H-pyrido[4,3-b]indole], the inhibition at 0.1 µM is 94% in assay [1], 103% in assay [2], 60% in assay [3] and 95% in assay [4] (setting [5]).

As to `Cc1ccc(CCn2c3c(c4c(Cl)c(Cl)ccc42)CN(C)CC3)cn1` [compound 319], the inhibition at 0.1 µM in assay [1] was 13%; in assay [2], 4%; in assay [3], 8%; in assay [4] (setting [5]), 63%.

In the case of `Cc1ccc2c(c1)c1c(n2CCc2cnc3ccccc3c2)CCN(C)C1` [compound 320], the inhibition at 0.1 µM in assay [1] amounted to 61%; in assay [2] it was 18%; in assay [3], 56%; in assay [4] (setting [5]), 66%.

With `Cc1ccc2c(c1)c1c(n2C#Cc2cnc3ccccc3c2)CCN(C)C1` [compound 321, 2,8-dimethyl-5-quinolin-3-ylethynyl-2,3,4,5-tetrahydro-1H-pyrido[4,3-b]indole], the inhibition at 0.1 µM in assay [1] came to 94%; in assay [2], 90%; in assay [3] it was 66%; in assay [4] (setting [5]) it was 59%.

`Cc1ccc(CCn2c3c(c4cc(Cl)c(Cl)cc42)CN(C)CC3)cn1` [compound 322]: the inhibition at 0.1 µM in assay [1] worked out at 59%; in assay [2] it was 49%; in assay [3] it was 22%; in assay [4] (setting [5]) it was 58%.

In the case of `Cc1ccc2c(c1)c1c(n2/C=C/c2cnc3ccccc3c2)CCN(C)C1` [compound 323], the inhibition at 0.1 µM turned out to be 85% in assay [1], 95% in assay [2], 69% in assay [3] and 92% in assay [4] (setting [5]).

As to `Cc1ccc2c(c1)c1c(n2CNc2ccccc2)CCN(C)C1` [compound 324, (2,8-dimethyl-1,2,3,4-tetrahydro-pyrido[4,3-b]indol-5-ylmethyl)-phenyl-amine], the inhibition at 0.1 µM in assay [1] worked out at 63%; in assay [2] it was 99%; in assay [3], 31%; in assay [4] (setting [5]), 67%.

Usually Ki stands for the dissociation constant of the complex between target and ligand, obtained from inhibition or displacement. Turning to `Cc1ccc(CCn2c3c(c4c(Cl)ccc(Cl)c42)CN(C)CC3)cn1` [compound 325], the inhibition at 0.1 µM was -1% in assay [1], -6% in assay [2], 1% in assay [3] and 81% in assay [4] (setting [5]). The figures for the Ki in assay [2] (read-out: Ki α2B) and in assay [4] were 206 nM and 9.88 nM, respectively. Further, in assay [4] (0.03 μM compound, read-out: Percentage inhibition of ligand binding, Adrenergic α2A), the inhibition at 0.03 µM turned out to be 53%. Also, in assay [4] (0.1 μM compound, 0.1 µM), the “Percentage inhibition of ligand binding, Adrenergic α2A” value worked out at 84%.

In the case of `Cc1ccc2c(c1)c1c(n2CCc2nc(-c3ccc(Cl)cc3)cs2)CCN(C)C1` [compound 326], the inhibition at 0.1 µM came out at 33% in assay [1], 93% in assay [2], 35% in assay [3] and 51% in assay [4] (setting [5]).

Regarding `Cc1cc(-c2sccc2C)c2c(c1)c1c(n2CCc2ccc(C)nc2)CCN(C)C1` [compound 327], the inhibition at 0.1 µM in assay [1] was -5%; in assay [2] it was -4%; in assay [3], 4%; in assay [4] (setting [5]), 58%.

`Cc1ccc(C#Cn2c3c(c4cc(C)ccc42)CN(C)CC3)nc1` [compound 328, 2,8-dimethyl-5-(5-methyl-pyridin-2-ylethynyl)-2,3,4,5-tetrahydro-1H-pyrido[4,3-b]indole]: the inhibition at 0.1 µM amounted to 95% in assay [1], 93% in assay [2], 80% in assay [3] and 76% in assay [4] (setting [5]).

Consider `CCCc1ccc(/C(C)=C/n2c3c(c4cc(C)ccc42)CN(C)CC3)cn1` [compound 329], for which the inhibition at 0.1 µM in assay [1] is 68%; in assay [2], 104%; in assay [3], 78%; in assay [4] (setting [5]), 60%.

Consider `Cc1ccc2c(c1)c1c(n2C#Cc2ccc(S(N)(=O)=O)cc2)CCN(C)C1` [compound 330, 4-(2,8-dimethyl-1,2,3,4-tetrahydro-pyrido[4,3-b]indol-5-ylethynyl)-benzenesulfonamide], for which the inhibition at 0.1 µM in assay [1] was 98%; in assay [2], 99%; in assay [3] it was 72%; in assay [4] (setting [5]), 58%.

Consider `C/C(=C\n1c2c(c3cc(C)ccc31)CN(C)CC2)c1ccc(C(F)(F)F)nc1` [compound 331], for which the inhibition at 0.1 µM worked out at 53% in assay [1], 99% in assay [2], 70% in assay [3] and 53% in assay [4] (setting [5]).
